The values that follow come from US20140336141A1, “MAO-B INHIBITORS DERIVED FROM THE ONE-CARBON CYCLE” (RANDOX LABORATORIES LTD., priority 2011, published 2014).

Test [1] deals with Mao-B. Nature of the test: MAO-B protein expression by Western blot in HepG2 cells, normalised against GAPDH and 14-3-3 gamma. It is filed as cell-based. The settings on record: 10 μM 5-aza-2-deoxycytidine for 1, 2, or 3 days; FIG. 3. On the procedure:
HepG2 cells were grown in DMEM low glucose/10% FBS and were treated with 10 μM 5-aza-2-deoxycytidine for 1, 2, or 3 days. Untreated HepG2 cells served as controls. Cells were scraped in precipitation buffer (PBS/25% trichloroacetic acid/20 mM DTT/protease inhibitors) at 4 C and proteins were precipitated for 1 hour at 4 C. Precipitated proteins were pelleted at 15000 rpm for 10 min (4 C) and washed 4 times with 700 μl acetone/20 mM DTT. Before analysis by SDS PAGE and Western blot, the precipitated samples were reconstituted in DIGE buffer/1% pH 4-7 ampholyte. Six parallel experiments were performed. […] Two normalisation compounds were used: GAPDH (glyceraldehyde 3-phosphate dehydrogenase) and 14-3-3 gamma (protein kinase C inhibitor protein 1). Each Mao-B band signal was divided by the respective GAPDH or 14-3-3 gamma band signal to achieve normalisation.
HepG2 cells were grown in DMEM low glucose/2% FBS and were treated with vitamin B6 (300 μg/ml) and vitamin B12 (74.4 μg/ml) for 1, 3, 4, 5 and 7 days. Untreated HepG2 cells served as controls. Cells were harvested and analysed by Western blot.

The subject of test [2] is Mao-B. Nature of the test: Mao-B protein levels by Western blot in differentiated SH-SY5Y cells. It is filed as cell-based. Particulars: for Densitometric quantification Exp. 2 / Densitometric quantification Exp. 3 / Densitometric quantification Exp. 1: Mao-B Western blot band signal, Aza 625 nM, SAM 25 μM, Vit B6 5 μg/ml, Vit B12 7.5 μg/ml; for Densitometric quantification Exp. 2 / Densitometric quantification Exp. 3 / % MAO-B of untreated cells Exp. 2 / % MAO-B of untreated cells Exp. 3 / Densitometric quantification Exp. 1 / % MAO-B of untreated cells Exp. 1: differentiated SH-SY5Y cells treated Days 8 to 12; for % MAO-B of untreated cells Exp. 2 / % MAO-B of untreated cells Exp. 3 / % MAO-B of untreated cells Exp. 1: untreated set 100%; for % MAO-B of untreated cells Average: differentiated SH-SY5Y cells, average of the experiments. As to the method: The neuroblastoma cell line SH-SY5Y was seeded at 110,000 cell/6-well. Neuronal differentiation treatment was started on the next day (=Day 0) by addition of 10 μM retinoic acid every second day until Day 6. On Day 8 differentiation treatment was switched to 4 μM uridine (Ur), 5 μM 5-fluoro-2′-deoxyuridine FdUr), and 1 μM cytosine beta-D-arabinofuranoside (araC). During mitotic inhibitor addition (=Days 8 to 12) cells were left untreated or treated with 625 nM 5-aza-2′-deoxycytidine (Aza), 25 μM S-adenosylmethionine (SAM), 5 μg/ml vitamin B6 (Vit B6), 7.5 μg/ml vitamin B12 (Vit B12), or 5 μg/ml vitamin B6/7.5 μg/ml vitamin B12. On Day 12 cells were harvested. Cells were washed twice with chilled PBS, scraped off in PBS/protease inhibitors, and centrifuged at 15000×g at 4 C for 10 min. The pellet was reconstituted in 150 μl PBS/protease inhibitors and precipitated with 50 μl trichloroacetic acid/80 mMDTT for 1 hour at 4 C. After centrifugation at 15000×g at 4 C for 10 min, precipitated protein was washed four times with 0.6 ml acetone/20 mM DTT and stored at −80 C until analysis. The dried total protein pellet was reconstituted in 7M urea/2M thiourea/4% CHAPS buffer and the protein concentration was determined using the Coomassie Plus (Bradford) Protein Assay (Pierce, Thermo Scientific). Equal protein amounts were loaded onto an 11% SDS polyacrylamide gel and proteins were blotted onto nitrocellulose. Mao-B was detected using a polyclonal Goat anti-Mao-B antibody (sc18401, Santa Cruz) and DyLight 649 AffiniPureF(ab′)2 Fragment Donkey Anti-Goat IgGgamma (Jackson ImmunoResearch Laboratories, Inc.), and a Typhoon scanner (GE Healthcare Life Sciences). Results were analysed with the software ImageJ. The signals of the Mao-B bands of SAM treated and untreated differentiated SH-SY5Y cells were compared and the latter was set 100%.
In general terms: In western blotting, separated proteins are transferred to a membrane and probed.

The test system of the next test is platelet MAO activity. Particulars: LOAD patients, vitamin B12 therapy; cited from earlier work.

As to `Nc1ncn([C@H]2C[C@H](O)[C@@H](CO)O2)c(=O)n1` [Aza, 5-aza-2′-deoxycytidine], in the test with Mao-B [1], the “MAO-B protein expression in HepG2 cells” value is listed as “increased levels of MAO-B are expressed”. Further, in the test on Mao-B [2], the “Densitometric quantification Exp. 2” value was found to be 1116.9, the “Densitometric quantification Exp. 3” value is 973.5, the “% MAO-B of untreated cells Exp. 2” value is recorded as 100% and the “% MAO-B of untreated cells Exp. 3” value amounted to 87%. Further, the “% MAO-B of untreated cells Average” value with Mao-B [2] amounted to 94%.
Take `C[S+](CC[C@H](N)C(=O)O)C[C@H]1O[C@@H](n2cnc3c(N)ncnc32)[C@H](O)[C@@H]1O` (stereo partly shown) [SAM, S-adenosylmethionine]: in the test on Mao-B [2], the “Densitometric quantification Exp. 1” value amounted to 2482.6, the “Densitometric quantification Exp. 2” value came out at 990.4, the “Densitometric quantification Exp. 3” value worked out at 1006.8 and the “% MAO-B of untreated cells Exp. 1” value came out at 60%. In the test with Mao-B [2], the “% MAO-B of untreated cells Exp. 2” value is on record as 89%, the “% MAO-B of untreated cells Exp. 3” value came out at 90% and the “% MAO-B of untreated cells Average” value was determined as 80%.
Turning to vitamin B6 [Vit B6], in the test with Mao-B [2], the “Densitometric quantification Exp. 1” value was found to be 4087.1, the “Densitometric quantification Exp. 2” value was determined as 1008.1, the “Densitometric quantification Exp. 3” value turned out to be 1004.8 and the “% MAO-B of untreated cells Exp. 1” value is listed as 99%. In addition, in the test on Mao-B [2], the “% MAO-B of untreated cells Exp. 2” value is reported as 90%, the “% MAO-B of untreated cells Exp. 3” value is 90% and the “% MAO-B of untreated cells Average” value is 93%.
For vitamin B12 [Vit B12], the “platelet MAO activity” value with platelet MAO activity is reported as “significantly reduced”. In addition, in the test with Mao-B [2], the “Densitometric quantification Exp. 1” value came out at 3823.5, the “Densitometric quantification Exp. 2” value was 857.8, the “Densitometric quantification Exp. 3” value is 695.3 and the “% MAO-B of untreated cells Exp. 1” value is listed as 93%. Further, in the test with Mao-B [2], the “% MAO-B of untreated cells Exp. 2” value turned out to be 77%, the “% MAO-B of untreated cells Exp. 3” value amounted to 62% and the “% MAO-B of untreated cells Average” value came out at 77%.
